# From US20240316043A1, “BROMODOMAIN INHIBITORS FOR CANCER THERAPY” (University of Tennessee Research Foundation, priority 2023, published 2024)
# “Also recorded” adds a separate entry of the source.
# Key:
# MT330 GBM cells = assay: Cell death ELISA in MT330 GBM cells; type: cell-based
# Protocol: Control cells were treated with vehicle (DMSO). Cell death was determined at 72 hr after treatment by a cell death ELISA that quantifies histone-complexed DNA fragments. […]
# Parental and BRG1 knockout MT330 cells were treated with bleomycin (0.01 μM) and bromodomain inhibitors […]. After 72 hr, cell death was determined by cell death ELISA.
# The biological activity of bromodomain inhibitors was assessed for the ability to enhance TMZ-induced cell death. In brief, MT330 cells were treated with […] of bromodomain inhibitors alone, or in combination with […] of TMZ for 72 hrs, and GBM cell death was determined by a commercial ELISA.
# T98G GBM cells [1] = assay: IncuCyte live cell imaging proliferation assay; type: cell-based; settings: TMZ (500 μM) plus bromodomain inhibitors (20 μM), FIG. 2
# Protocol: T98G GBM cells were treated with TMZ (500 μM), the bromodomain inhibitors (20 μM), and cell proliferation was determined by Incucyte live cell assays using cellular confluence method. The data was normalized to the calculated cell confluence at day 0. Control cells were treated with vehicle (DMSO).
# To further characterize the biological activity of selected bromodomain inhibitors, YH-IV-129, YH-IV-181 and YH-IV-191, IncuCyte live cell imaging proliferation assays were performed with the highly TMZ-resistant T98G GBM cell line.
# BRG1 bromodomain = target: T1, BRG1 bromodomain (Homo sapiens, UniProt P51532); assay: Cellular thermal shift assay (CETSA), BRG1 bromodomain construct in MT330 cells; type: binding; settings: FIG. 3
# T1 construct: expressed in transfected cells; host or cells: MT330 glioblastoma cells
# T1 sequence (P51532 1453-1564 limits assumed): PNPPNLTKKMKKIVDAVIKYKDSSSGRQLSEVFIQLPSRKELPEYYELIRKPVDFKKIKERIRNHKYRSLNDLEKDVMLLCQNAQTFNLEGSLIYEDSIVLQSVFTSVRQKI
# Protocol: After heating over a temperature range from 44.5° C. to 55.6° C. for 5 min, the cells were lysed, placed on ice at 4° C. and then immunoblotted for BRG1 or actin.
# (§1) For the CETSA, MT330 cells expressing the BRM (FIG. 6B), or BRG1 (FIG. 6C) the BRD construct were treated with bromodomain inhibitors […] and immunoblotted as indicated.
# (§2) After heating over a temperature range from 44.5° C. to 55.6° C. for 5 min, MT330 cells were lysed and then immunoblotted for BRG1 or BRM.
# BRM bromodomain = target: T2, BRM bromodomain (Homo sapiens, UniProt P51531); assay: Cellular thermal shift assay (CETSA), BRM bromodomain construct in MT330 cells; type: binding; settings: FIG. 3
# T2 construct: expressed in transfected cells; host or cells: MT330 glioblastoma cells
# T2 sequence (P51531 1378-1506 limits assumed): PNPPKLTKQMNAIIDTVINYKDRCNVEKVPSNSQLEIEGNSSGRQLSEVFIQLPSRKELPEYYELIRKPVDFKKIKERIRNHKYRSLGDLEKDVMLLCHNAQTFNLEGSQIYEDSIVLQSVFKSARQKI
# Protocol: as §1, §2
# U87 GBM cells = assay: Cell death ELISA in TMZ-resistant U87 cells; type: cell-based; settings: U87, TMZ (500 μM) and inhibitor (10 μM), 72 hr, FIG. 4
# Protocol: (§3) After 72 hr, cell death was determined by a commercial cell death ELISA.
# (§4) To further test the bioactivity of bromodomain inhibitors, T98G and U87 GBM cell lines were used that are highly resistant to the death inducing activity of TMZ. […] Because of their high TMZ resistance, these cells may serve as cell models for TMZ resistant GBM cancer stem-like cells.
# T98G GBM cells [2] = assay: Cell death ELISA in TMZ-resistant T98G cells; type: cell-based; settings: TMZ (500 μM) and inhibitor (10 μM), 72 hr
# Protocol: as §3, §4
# [3] = tested on: intracranial GBM xenografts (MT330 cells); assay: Orthotopic GBM model, MT330 cells injected into brains of NSG mice; type: in vivo
# Protocol: MT330 cells (10^6) were injected into the brains of NSG female mice. After tumors were identified by BLI (˜10 days post-injection), mice were IP injected with TMZ (60 mg/Kg body weight) or IV-129 (10 mg/Kg) alone or in combination 3 times per week (5 mice per group) for 2 weeks. […] FIG. 5C Kaplan-Meier analysis of the survival data (5 mice/group) of the brain tumor-bearing mice was performed.
# MT330 cells […] were injected into the brains of NSG female mice. After tumors were identified by BLI (˜10 days post-injection), mice were IP injected with TMZ (10 mg/Kg body weight), IV-255 or IV-275 (20 mg/Kg) alone or in combination 3 times per week (5 mice/group).
# Luciferase-expressing MT330 cells were injected into the brains of immunocompromised NSG mice. Once tumors were identified by bioluminescence imaging (BLI) at ˜10 days after tumor cell injection, mice were subjected to intraperitoneal injection of TMZ or YH-IV-129 alone, or in combination. At 20 days after initiation of treatment, live animal imaging was performed on an IVIS Lumina instrument. […] The mean survival of control mice was 27 days after cell injection (FIG. 5C).
# Luciferase-expressing MT330 cells were injected into the brains of immunocompromised NSG mice. Once tumors were identified by bioluminescence imaging (BLI) at ˜10 days after tumor cell injection, mice were subjected to intraperitoneal injection of TMZ or YH-IV-255 or YH-IV-275 alone, or in combination. […] This is compelling preliminary evidence that these two new compounds have potent anticancer activity in intracranial GBM xenografts when combined with standard-of-care TMZ chemotherapy and that these drugs cross the blood-brain barrier.
# [4] = Tolerability in mice not injected with tumor cells; type: in vivo; settings: at the drug doses used
# [5] = vehicle control band disappearing at 49.8° C.
smiles,measurement,setting,value
"COc1ccc(N2C[C@H]3C[C@@H]2CN3C(=O)OC(C)(C)C)cc1 [YH-IV-129, (1R,4R)-tert-butyl 5-(4-methoxyphenyl)-2,5-diazabicyclo[2.2.1]heptane-2-carboxylate]",enhancement of TMZ-induced cell death,"MT330 GBM cells; 10 mM inhibitor in combination with 200 mM of TMZ, 72 hrs, FIG. 1",better efficacy than PFI-3; also recorded: markedly enhanced TMZ sensitivity of GBM cells in vitro
same,enhancement of bleomycin-induced cell death,"MT330 GBM cells; bleomycin (0.01 μM) and bromodomain inhibitors (10 μM), 72 hr, FIG. 9",sensitized GBM cells to bleomycin-induced cell death
same,"cell death, inhibitor alone","MT330 GBM cells; bromodomain inhibitors (10 μM) alone, 72 hr, FIG. 9","none of the bromodomain inhibitors (YH-IV-129, YH-IV-255 and YH-IV-275) alone had any death inducing activity"
same,sensitization to the antiproliferative action of TMZ,T98G GBM cells [1],potently sensitized T98G GBM cells to the antiproliferative action of TMZ
same,thermostability of the BRG1 BRD,"BRG1 bromodomain; 30 μM, heating 44.5° C. to 55.6° C. for 5 min, immunoblot",significantly increased the thermostability
same,temperature at which the BRG1 BRD protein band is undetectable,BRG1 bromodomain; [5],54.20 °C
same,thermostability of the BRM BRD,"BRM bromodomain; heating 44.5° C. to 55.6° C. for 5 min, immunoblot",significantly increased the thermostability
same,temperature at which the BRM BRD protein band is undetectable,BRM bromodomain; [5],54.20 °C
same,sensitization to cell-death inducing effects of TMZ,U87 GBM cells,much more potent than PFI-3
same,sensitization to cell-death inducing effects of TMZ,U87 GBM cells; listed as IV-129,more potent than PFI-3 as a chemosensitizer to TMZ
same,sensitization to cell-death inducing effects of TMZ,T98G GBM cells [2]; FIG. 4,much more potent than PFI-3
same,sensitization to cell-death inducing effects of TMZ,"T98G GBM cells [2]; FIG. 4, listed as IV-129",more potent than PFI-3 as a chemosensitizer to TMZ
same,"mean survival, combination with TMZ","[3]; TMZ (60 mg/Kg) and IV-129 (10 mg/Kg) IP, control mice 27 days after cell injection, FIG. 5C",48 days
same,"mean survival, either agent alone","[3]; TMZ (60 mg/Kg) or IV-129 (10 mg/Kg) alone IP, control mice 27 days, FIG. 5C",35 days
same,tumor size by bioluminescence (BLI),"[3]; combination with TMZ (60 mg/Kg) and IV-129 (10 mg/Kg) IP 3 times per week for 2 weeks, 20 days after treatment, versus either agent alone",much smaller tumors
same,weight loss,"[3]; combination with TMZ, 20 days post-treatment, versus either agent alone, FIG. 5B",weight loss was much lower
same,crossing of the blood-brain barrier,[3]; inferred from activity in intracranial GBM xenografts,crosses the blood-brain barrier
same,"adverse effects on health, behavior or weight",[4],"no adverse effects on the health, behavior or weight of mice"
